The term ΔTm denotes the change in melting temperature against a reference sample.

Series [1] in a line: Growth inhibition of human NHEK cells incubated for 24 hrs by CCK8 assay. It counts as tissue-based. A general note: Tetrazolium assays rely on reduction of a dye to a coloured formazan, in cell work by metabolically active cells.
For series [2], the system named is Quadruplex DNA. The experiment in a line: Binding affinity to c-myc G4 DNA 5'-TGAGGGTGGGGAGGGTGGGGAA-3' (unknown origin) assessed as change in enthalpy measured under molecular crowding conditions by isothermal titration calorimetry. It counts as nucleic-acid assay. As to conditions: Homo sapiens. For orientation: ITC needs no label: the signal is the heat of the interaction.

Series [3] in a line: Growth inhibition of human NHEK cells at 0.1 uM incubated for 24 hrs by CCK8 assay. Type of series: tissue-based. Conditions: read-out: GI.
The subject of series [4] is Quadruplex DNA. The experiment in a line: Binding affinity to TA-core G4 DNA 5'-TAGGGTTAGGGTTAGGGTTAGGG-3' (unknown origin) assessed as change in entropy measured under dilution conditions by isothermal titration calorimetry. It counts as nucleic-acid assay. Conditions: Homo sapiens.
The subject of series [5] is Quadruplex DNA. The series is described as follows: Binding affinity at TA-core G4 DNA 5'-TAGGGTTAGGGTTAGGGTTAGGG-3' (unknown origin) assessed as change in melting temperature by circular dichroism spectrophotometric method. It counts as nucleic-acid assay. Conditions: Homo sapiens. Background: CD spectra are sensitive to the conformation of chiral molecules.
Series [6] has as its system Quadruplex DNA. The experiment in a line: Binding affinity to TA-core G4 DNA 5'-TAGGGTTAGGGTTAGGGTTAGGG-3' (unknown origin) assessed as change in enthalpy measured under molecular crowding conditions by isothermal titration calorimetry. It counts as nucleic-acid assay. As to conditions: Homo sapiens.
Series [7] has as its system Quadruplex DNA. The series is described as follows: Binding affinity to TA-core G4 DNA 5'-TAGGGTTAGGGTTAGGGTTAGGG-3' (unknown origin) assessed as change in entropy measured under molecular crowding conditions by isothermal titration calorimetry. Conditions: Homo sapiens. Type of series: nucleic-acid assay.
Series [8] has as its system Ca9-22. The series is described as follows: Growth inhibition of human Ca9-22 cells incubated for 24 hrs by CCK8 assay. Type of series: functional, cell-based.
For series [9], the system named is Quadruplex DNA. The experiment in a line: Binding affinity at c-myc G4 DNA 5'-TGAGGGTGGGGAGGGTGGGGAA-3' (unknown origin) assessed as circular dichroism changes up to 4.5 uM by spectrophotometric method. As to conditions: Homo sapiens; dose microM <=4.5. It counts as nucleic-acid assay.
The test system of series [10] is Ca9-22. The experiment in a line: Growth inhibition of human Ca9-22 cells at 0.1 uM incubated for 24 hrs by CCK8 assay. Conditions: read-out: GI. It counts as functional.
Series [11] has as its system Bone marrow cell. The experiment in a line: Growth inhibition of human Bone marrow cell incubated for 24 hrs by CCK8 assay. It counts as cell-based.
Series [12] deals with Quadruplex DNA. The series is described as follows: Binding affinity to c-myc G4 DNA 5'-TGAGGGTGGGGAGGGTGGGGAA-3' (unknown origin) assessed as change in enthalpy measured under dilution conditions by isothermal titration calorimetry. Conditions: Homo sapiens. Type of series: nucleic-acid assay.
Series [13] has as its system Quadruplex DNA. The series is described as follows: Binding affinity to c-myc G4 DNA 5'-TGAGGGTGGGGAGGGTGGGGAA-3' (unknown origin) assessed as Gibbs free energy change measured under dilution conditions by isothermal titration calorimetry. It counts as nucleic-acid assay. As to conditions: Homo sapiens.
In series [14] the test system is Quadruplex DNA. The series is described as follows: Binding affinity to c-myc G4 DNA 5'-TGAGGGTGGGGAGGGTGGGGAA-3' (unknown origin) assessed as association constant at equilibrium measured under dilution conditions by isothermal titration calorimetry. It counts as nucleic-acid assay. As to conditions: Homo sapiens.
The test system of series [15] is Quadruplex DNA. The experiment in a line: Binding affinity to TA-core G4 DNA 5'-TAGGGTTAGGGTTAGGGTTAGGG-3' (unknown origin) assessed as Gibbs free energy change measured under molecular crowding conditions by isothermal titration calorimetry. Type of series: nucleic-acid assay. As to conditions: Homo sapiens.
In series [16] the test system is Quadruplex DNA. The experiment in a line: Binding affinity to TA-core G4 DNA 5'-TAGGGTTAGGGTTAGGGTTAGGG-3' (unknown origin) assessed as association constant at equilibrium measured under molecular crowding conditions by isothermal titration calorimetry. It counts as nucleic-acid assay. As to conditions: Homo sapiens.
Series [17] relates to Quadruplex DNA. The experiment in a line: Binding affinity to TA-core G4 DNA 5'-TAGGGTTAGGGTTAGGGTTAGGG-3' (unknown origin) assessed as change in enthalpy measured under dilution conditions by isothermal titration calorimetry. Conditions: Homo sapiens. Type of series: nucleic-acid assay.
Series [18] deals with Quadruplex DNA. The series is described as follows: Binding affinity to c-myc G4 DNA 5'-TGAGGGTGGGGAGGGTGGGGAA-3' (unknown origin) assessed as change in entropy measured under dilution conditions by isothermal titration calorimetry. Type of series: nucleic-acid assay. As to conditions: Homo sapiens.
Series [19] has as its system Quadruplex DNA. The experiment in a line: Binding affinity to c-myc G4 DNA 5'-TGAGGGTGGGGAGGGTGGGGAA-3' (unknown origin) assessed as change in entropy measured under molecular crowding conditions by isothermal titration calorimetry. It counts as nucleic-acid assay. As to conditions: Homo sapiens.
Series [20] deals with Quadruplex DNA. The experiment in a line: Binding affinity to c-myc G4 DNA 5'-TGAGGGTGGGGAGGGTGGGGAA-3' (unknown origin) assessed as Gibbs free energy change measured under molecular crowding conditions by isothermal titration calorimetry. It counts as nucleic-acid assay. Conditions: Homo sapiens.
The subject of series [21] is Bone marrow cell. The series is described as follows: Growth inhibition of human Bone marrow at 0.1 uM cell incubated for 24 hrs by CCK8 assay. It counts as cell-based.
The subject of series [22] is Quadruplex DNA. The experiment in a line: Binding affinity at TA-core G4 DNA 5'-TAGGGTTAGGGTTAGGGTTAGGG-3' (unknown origin) assessed as circular dichroism changes up to 4.5 uM by spectrophotometric method. It counts as nucleic-acid assay. As to conditions: Homo sapiens; dose microM <=4.5.
Series [23] concerns Quadruplex DNA. The experiment in a line: Binding affinity to TA-core G4 DNA 5'-TAGGGTTAGGGTTAGGGTTAGGG-3' (unknown origin) assessed as Gibbs free energy change measured under dilution conditions by isothermal titration calorimetry. Type of series: nucleic-acid assay. As to conditions: Homo sapiens.
Series [24] deals with Quadruplex DNA. The experiment in a line: Binding affinity to c-myc G4 DNA 5'-TGAGGGTGGGGAGGGTGGGGAA-3' (unknown origin) assessed as association constant at equilibrium measured under molecular crowding conditions by isothermal titration calorimetry. Type of series: nucleic-acid assay. As to conditions: Homo sapiens.
In series [25] the test system is Quadruplex DNA. The experiment in a line: Binding affinity to TA-core G4 DNA 5'-TAGGGTTAGGGTTAGGGTTAGGG-3' (unknown origin) assessed as association constant at equilibrium measured under dilution conditions by isothermal titration calorimetry. It counts as nucleic-acid assay. Conditions: Homo sapiens.
Series [26] concerns the target Telomerase reverse transcriptase (Homo sapiens) (UniProt O14746). The series is described as follows: Inhibition of telomerase in human A549 cell lysate using TA-core (5'-TAGGGTTAGGGTTAGGGTTAGGG-3') and Rev21G (5'-TCT CGT CTF CCC TAA-3') as primer by PCR stop assay. It counts as subcellular.

Activity calls are given as the source filed them. The calls are words filed in the database; no cut-off is given here. A value given as a limit tells only on which side of the number the result lay.

Telomerase reverse transcriptase (Homo sapiens), sequence (O14746 whole entry): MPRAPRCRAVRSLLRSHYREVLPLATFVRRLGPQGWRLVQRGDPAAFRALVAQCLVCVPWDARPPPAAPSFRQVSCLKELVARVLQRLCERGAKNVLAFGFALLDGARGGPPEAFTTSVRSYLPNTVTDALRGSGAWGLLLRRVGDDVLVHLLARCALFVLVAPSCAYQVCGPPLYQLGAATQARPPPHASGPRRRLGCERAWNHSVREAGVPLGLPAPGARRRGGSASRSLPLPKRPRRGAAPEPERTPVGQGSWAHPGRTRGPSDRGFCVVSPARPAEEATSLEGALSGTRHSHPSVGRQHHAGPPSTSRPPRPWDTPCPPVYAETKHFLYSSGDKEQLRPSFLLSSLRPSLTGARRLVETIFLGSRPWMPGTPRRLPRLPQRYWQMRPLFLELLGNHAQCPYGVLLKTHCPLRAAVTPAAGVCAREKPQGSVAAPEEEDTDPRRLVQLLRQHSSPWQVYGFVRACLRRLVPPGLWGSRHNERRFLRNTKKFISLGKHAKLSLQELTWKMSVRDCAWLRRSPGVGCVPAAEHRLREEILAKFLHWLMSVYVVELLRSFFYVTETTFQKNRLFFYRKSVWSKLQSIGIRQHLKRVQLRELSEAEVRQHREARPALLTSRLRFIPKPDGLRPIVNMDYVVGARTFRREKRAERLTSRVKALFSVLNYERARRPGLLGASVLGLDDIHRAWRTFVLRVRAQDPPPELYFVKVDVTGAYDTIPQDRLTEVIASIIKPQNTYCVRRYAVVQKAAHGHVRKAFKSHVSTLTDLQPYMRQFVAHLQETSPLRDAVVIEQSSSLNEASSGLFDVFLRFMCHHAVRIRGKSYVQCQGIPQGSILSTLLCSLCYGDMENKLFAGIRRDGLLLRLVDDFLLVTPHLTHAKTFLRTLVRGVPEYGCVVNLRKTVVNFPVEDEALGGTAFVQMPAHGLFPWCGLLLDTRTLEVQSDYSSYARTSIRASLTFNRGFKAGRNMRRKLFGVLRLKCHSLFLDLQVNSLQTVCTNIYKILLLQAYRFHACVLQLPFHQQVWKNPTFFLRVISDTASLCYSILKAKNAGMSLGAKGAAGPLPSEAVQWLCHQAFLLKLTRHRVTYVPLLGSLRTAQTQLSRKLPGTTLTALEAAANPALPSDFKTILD

Regarding `CN1CCCNC(=O)CC2(CCCCC2)CC(=O)NCCCN(C)CCCN2C(=O)c3ccc4c5c(ccc(c35)C2=O)C(=O)N(CCC1)C4=O`, the Activity entry (in [1]; with Bone marrow cell [11]; in the series on Bone marrow cell [21]) was “Non-Toxic” each time. In addition, the deltaH is -83.7 kJ/mol in the series on Quadruplex DNA [2], -180 kJ/mol in the series on Quadruplex DNA [6], -58.6 kJ/mol in the series with Quadruplex DNA [12] and -54.4 kJ/mol with Quadruplex DNA [17]. Besides, the inhibition at 24 h, 0.1 µM in series [3] turned out to be 40%. Besides, the -TdeltaS in the series on Quadruplex DNA [4] came to 18.4 kJ/mol; in the series with Quadruplex DNA [7], 146 kJ/mol; in the series with Quadruplex DNA [18], 19.7 kJ/mol; in the series on Quadruplex DNA [19], 50.2 kJ/mol. Moreover, the ΔTm in the series with Quadruplex DNA [5] worked out at 10 °C. Besides, the result in the series with Ca9-22 [8], with Quadruplex DNA [9] and in the series with Quadruplex DNA [22] was Active. In the series with Ca9-22 [10], the inhibition of growth at 0.1 µM was over 70%. For the same compound, the deltaG is -38.9 kJ/mol in the series with Quadruplex DNA [13], -33.1 kJ/mol in the series on Quadruplex DNA [15], -33.5 kJ/mol in the series on Quadruplex DNA [20] and -36 kJ/mol in the series with Quadruplex DNA [23]. In addition, the Ka was determined as 6.2e+06 M⁻¹ in the series on Quadruplex DNA [14], 600000 M⁻¹ in the series with Quadruplex DNA [16], 700000 M⁻¹ in the series with Quadruplex DNA [24] and 1.5e+06 M⁻¹ in the series on Quadruplex DNA [25]. For the same compound, the inhibition entry in series [26] was “Active”.
With `CN1CCCNC(=O)CCCC(=O)NCCCN(C)CCCN2C(=O)c3ccc4c5c(ccc(c35)C2=O)C(=O)N(CCC1)C4=O`, the deltaH with Quadruplex DNA [2] was -83.7 kJ/mol; in the series on Quadruplex DNA [6], -92 kJ/mol; in the series on Quadruplex DNA [12], -46 kJ/mol; with Quadruplex DNA [17], -35.6 kJ/mol. The -TdeltaS in the series with Quadruplex DNA [4] was -1.67 kJ/mol; in the series with Quadruplex DNA [7] it was 58.6 kJ/mol; with Quadruplex DNA [18], 12.1 kJ/mol; with Quadruplex DNA [19], 50.2 kJ/mol. In the series on Quadruplex DNA [5], the ΔTm amounted to 10 °C. The outcome in the series on Ca9-22 [8], in the series on Quadruplex DNA [9] and in the series with Quadruplex DNA [22] was Active. Further, the deltaG in the series on Quadruplex DNA [13] was -33.9 kJ/mol; in the series with Quadruplex DNA [15] it was -36 kJ/mol; in the series on Quadruplex DNA [20], -35.6 kJ/mol; in the series with Quadruplex DNA [23], -37.2 kJ/mol. Besides, the Ka in the series on Quadruplex DNA [14] came out at 1.1e+06 M⁻¹; in the series with Quadruplex DNA [16] it was 1.9e+06 M⁻¹; with Quadruplex DNA [24] it was 1.6e+06 M⁻¹; in the series on Quadruplex DNA [25], 3.4e+06 M⁻¹. Also, the inhibition entry in series [26] was “Active”.
For `CN1CCCNC(=O)CC(C)(C)CC(=O)NCCCN(C)CCCN2C(=O)c3ccc4c5c(ccc(c35)C2=O)C(=O)N(CCC1)C4=O`, the deltaH is -201 kJ/mol with Quadruplex DNA [2], -121 kJ/mol with Quadruplex DNA [6], -46 kJ/mol in the series with Quadruplex DNA [12] and -46 kJ/mol in the series with Quadruplex DNA [17]. Also, the -TdeltaS with Quadruplex DNA [4] was 10.5 kJ/mol; in the series with Quadruplex DNA [7], 87.9 kJ/mol; in the series with Quadruplex DNA [18], 9.62 kJ/mol; in the series on Quadruplex DNA [19], 172 kJ/mol. For the same compound, the ΔTm in the series on Quadruplex DNA [5] worked out at 10 °C. Also, the result in the series with Ca9-22 [8], with Quadruplex DNA [9] and with Quadruplex DNA [22] was Active. Further, the deltaG with Quadruplex DNA [13] was -36.4 kJ/mol; in the series on Quadruplex DNA [15] it was -33.5 kJ/mol; in the series on Quadruplex DNA [20] it was -31.8 kJ/mol; with Quadruplex DNA [23], -35.6 kJ/mol. Also, the Ka with Quadruplex DNA [14] was found to be 2.6e+06 M⁻¹; in the series with Quadruplex DNA [16], 700000 M⁻¹; in the series on Quadruplex DNA [24] it was 400000 M⁻¹; in the series on Quadruplex DNA [25], 1.7e+06 M⁻¹. In addition, in series [26], the inhibition entry is “Active”.
With `CN1CCCNC(=O)c2cccc(c2)C(=O)NCCCN(C)CCCN2C(=O)c3ccc4c5c(ccc(c35)C2=O)C(=O)N(CCC1)C4=O`, the deltaH in the series on Quadruplex DNA [2] is -222 kJ/mol; in the series with Quadruplex DNA [6], -146 kJ/mol; in the series on Quadruplex DNA [12], -41.8 kJ/mol; with Quadruplex DNA [17], -37.7 kJ/mol. In addition, the -TdeltaS with Quadruplex DNA [4] was 1.51 kJ/mol; in the series on Quadruplex DNA [7], 113 kJ/mol; in the series on Quadruplex DNA [18], 5.44 kJ/mol; with Quadruplex DNA [19] it was 188 kJ/mol. Besides, the ΔTm in the series on Quadruplex DNA [5] amounted to 10 °C. Further, the result in the series on Ca9-22 [8], with Quadruplex DNA [9] and in the series with Quadruplex DNA [22] was Active. For the same compound, the deltaG in the series with Quadruplex DNA [13] is -36.4 kJ/mol; in the series on Quadruplex DNA [15] it was -33.5 kJ/mol; with Quadruplex DNA [20], -33.5 kJ/mol; with Quadruplex DNA [23] it was -36 kJ/mol. Also, the Ka in the series with Quadruplex DNA [14] came to 2.4e+06 M⁻¹; in the series on Quadruplex DNA [16] it was 700000 M⁻¹; in the series on Quadruplex DNA [24], 800000 M⁻¹; in the series with Quadruplex DNA [25], 2.2e+06 M⁻¹. For the same compound, the inhibition entry in series [26] was “Active”.

Values taken from ChEMBL document CHEMBL4808234, “Substituent effects of cyclic naphthalene diimide on G-quadruplex binding and the inhibition of cancer cell growth” (Bioorg Med Chem Lett, 2021).
